2 molecules from patent publication US11578054B2, “Compounds useful as immunomodulators” (Bristol-Myers Squibb Company, priority 2018, dated 2023) can be followed below.

The IC50 is the midpoint of a concentration-inhibition curve. A low value points to greater potency.

The target of the assay is PD-1/PD-L1 (Homo sapiens (Human), UniProt Q9NZQ7). Briefly: PD-1/PD-L1 Homogenous Time-Resolved Fluorescence (HTRF) binding assay. As to conditions: PD-L1-His 10 nM, PD-1-Ig 20 nM. The source says:
The ability of the compounds of formula (I) to bind to PD-L1 was investigated using a PD-1/PD-L1 Homogenous Time-Resolved Fluorescence (HTRF) binding assay.
Homogenous Time-Resolved Fluorescence (HTRF) binding assay.
The interaction of PD-1 and PD-L1 can be assessed using soluble, purified preparations of the extracellular domains of the two proteins. The PD-1 and PD-L1 protein extracellular domains were expressed as fusion proteins with detection tags, for PD-1, the tag was the Fc portion of Immunoglobulin (PD-1-Ig) and for PD-L1 it was the 6 histidine motif (PD-L1-His). All binding studies were performed in an HTRF assay buffer consisting of dPBS supplemented with 0.1% […] bovine serum albumin and 0.05% (v/v) Tween-20. For the h/PD-L1-His binding assay, inhibitors were pre-incubated with PD-L1-His (10 nM final) for 15m in 4 μl of assay buffer, followed by addition of PD-1-Ig (20 nM final) in 1 µl of assay buffer and further incubation for 15m. HTRF detection was achieved using europium crypate-labeled anti-Ig (1 nM final) and allophycocyanin (APC) labeled anti-His (20 nM final). Antibodies were diluted in HTRF detection buffer and 5 μl was dispensed on top of the binding reaction. The reaction mixture was allowed to equilibrate for 30 minutes and the resulting signal (665 nm/620 nm ratio) was obtained using an EnVision fluorometer. Additional binding assays were established between the human proteins PD-1-Ig/PD-L2-His (20 & 5 nM, respectively) and CD8O-His/PD-L1-Ig (100 & 10 nM, respectively).
Recombinant Proteins: Human PD-1 (25-167) with a C-terminal human Fc domain of immunoglobulin G (Ig) epitope tag [hPD-1 (25-167)-3S-IG] and human PD-L1 (18-239) with a C-terminal His epitope tag [hPD-L1(18-239)-TVMV-His] were expressed in HEK293T cells and purified sequentially by ProteinA affinity chromatography and size exclusion chromatography. Human PD-L2-His and CD8O-His was obtained through commercial sources.
The table below lists the IC50 values for representative examples of this disclosure measured in the PD-1/PD-L1 Homogenous Time-Resolved Fluorescence (HTRF) binding assay.

PD-1/PD-L1, sequence (Q9NZQ7 other isoform, or with tags, fused parts or gaps): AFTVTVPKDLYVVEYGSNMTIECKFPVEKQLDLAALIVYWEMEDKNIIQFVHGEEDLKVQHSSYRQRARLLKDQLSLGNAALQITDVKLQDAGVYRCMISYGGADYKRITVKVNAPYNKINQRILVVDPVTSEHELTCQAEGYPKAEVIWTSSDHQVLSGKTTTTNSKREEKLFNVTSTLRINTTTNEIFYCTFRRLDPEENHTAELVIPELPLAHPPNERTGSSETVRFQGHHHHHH

As for `N#Cc1cncc(COc2cc(OC3CCc4c(-c5cccc(OCCCNC[C@H](O)CO)c5Cl)cccc43)c(Cl)cc2CO)c1` (stereo partly drawn) [Example 1020, 5-((4-Chloro-5-((4-(2-chloro-3-(3-(((S)-2,3-dihydroxypropyl)amino)propoxy)phenyl)-2,3-dihydro-1H-inden-1-yl)oxy)-2-(hydroxymethyl)phenoxy)methyl)nicotinonitrile], the IC50 amounted to 10.9 nM.
On to `CN1CCC[C@@H](COc2cccc(-c3cccc4c3CC[C@H]4Oc3cc(OCc4cncc(C#N)c4)c(CO)cc3Cl)c2Cl)C1` [Example 1007, 5-((4-chloro-5-(((R)-4-(2-chloro-3-(((R)-1-methylpiperidin-3-yl)methoxy)phenyl)-2,3-dihydro-1H-inden-1-yl)oxy)-2-(hydroxymethyl)phenoxy)methyl)nicotinonitrile], for which the concentration for half-maximal inhibition (IC50) is 4.3 nM.
